According to ChEMBL document CHEMBL1130091, “Synthesis and cytotoxic evaluation of substituted sulfonyl-N-hydroxyguanidine derivatives as potential antitumor agents” (J Med Chem, 1997):
Converted amounts (≈) assume the structure as drawn.

Columns and labels:
[1] = tested on: COLO 205; assay: Cytotoxic activity against human tumor COLO 205 cell line; type: functional, cell-based
[2] = tested on: HepG2; assay: Cytotoxic activity against human tumor HepG2 cell line; type: functional, cell-based
[3] = tested on: KB; assay: Cytotoxic activity against human tumor KB cell line; type: functional, cell-based
[4] = tested on: TSGH 8302; assay: Cytotoxic activity against human tumor TSGH 8302 cell line; type: functional, cell-based
[5] = tested on: MOLT-4; assay: Cytotoxic Activity against human tumor MOLT-4 cell line; type: functional, cell-based
[6] = tested on: MOLT-4; assay: Cytotoxic Activity against human tumor MOLT-4 cell line with 20 micro g/mL; type: functional
[7] = tested on: Mus musculus; assay: Tumor growth inhibition determined at day 20 after tumor transplantation in mice at dose of 300 mg/kg oral administration; type: functional; conditions: 480 h
[8] = tested on: Mus musculus; assay: Antitumor activity against Murine K1735/M2 Melanoma xenograft expressed as body weight change from day 0 to 20 in mice at dose of 300 mg/kg oral administration; type: functional

Compound | IC50 [1] [µg/mL] | IC50 [2] [µg/mL] | IC50 [3] [µg/mL] | IC50 [4] [µg/mL] | IC50 [5] [µg/mL] | Inhibition [6] [%] | inhibition in vivo at 300 mg/kg [7] [%] | Body weight change [8] [g]
O=S(=O)(NC(=S)Nc1ccc(Cl)cc1)c1cc(S(=O)(=O)c2ccccc2)cs1 | 220 (≈ 465 µM) | 214 (≈ 452 µM) | 196 (≈ 414 µM) | 217 (≈ 459 µM) | – | – | – | –
CCCCOc1ccc(S(=O)(=O)N/C(=N\O)Nc2ccc(Cl)cc2)cc1 | 49 (≈ 123 µM) | 63 (≈ 158 µM) | 50 (≈ 126 µM) | 37 (≈ 93 µM) | 18 (≈ 45.2 µM) | – | – | –
O=S(=O)(N/C(=N\O)Nc1ccc(Cl)cc1)c1cccc2snnc12 | 87 (≈ 227 µM) | 45 (≈ 117 µM) | 35 (≈ 91.2 µM) | 93 (≈ 242 µM) | 33 (≈ 86 µM) | – | – | –
O=S(=O)(N/C(=N\O)Nc1ccc(Cl)cc1)c1cc(-c2ccsc2)no1 | 52 (≈ 130 µM) | > 300 | 55 (≈ 138 µM) | 149 (≈ 374 µM) | 9 (≈ 22.6 µM) | – | – | –
O=S(=O)(NC(=S)Nc1ccc(Cl)cc1)c1ccc(S(=O)(=O)c2ccccc2)s1 | 65 (≈ 137 µM) | 216 (≈ 457 µM) | 66 (≈ 140 µM) | 79 (≈ 167 µM) | – | 59 | – | –
O=[N+]([O-])c1cccc(Cl)c1Oc1ccc(S(=O)(=O)N/C(=N\O)Nc2ccc(Cl)cc2)cc1 | > 100 | > 100 | 83 (≈ 167 µM) | 53 (≈ 107 µM) | – | – | – | –
O=S(=O)(N/C(=N\O)Nc1ccc(Cl)cc1)c1cc2ccccc2s1 | 80 (≈ 209 µM) | 176 (≈ 461 µM) | 55 (≈ 144 µM) | 76 (≈ 199 µM) | 57 (≈ 149 µM) | – | – | –
O=S(=O)(NC(=S)Nc1ccc(Cl)cc1)c1ccccc1 | 91 (≈ 278 µM) | > 300 | 66 (≈ 202 µM) | > 300 | – | 63 | – | –
O=[N+]([O-])c1ccc(Oc2c(Cl)cc(S(=O)(=O)N/C(=N\O)Nc3ccc(Cl)cc3)cc2Cl)c(Cl)c1 | 6 (≈ 10.6 µM) | 49 (≈ 86.5 µM) | 7 (≈ 12.4 µM) | 7 (≈ 12.4 µM) | 56 (≈ 98.9 µM) | – | 70.7 | 1.3
O=S(=O)(N/C(=N\O)Nc1ccc(Cl)cc1)c1ccccc1 | 53 (≈ 163 µM) | 54 (≈ 166 µM) | 46 (≈ 141 µM) | 52 (≈ 160 µM) | 7 (≈ 21.5 µM) | – | – | –
Cc1c(S(=O)(=O)/N=C(\S)Nc2ccc(Cl)c(Cl)c2)sc2ccc(Cl)cc12 | 57 (≈ 122 µM) | 62 (≈ 133 µM) | 25 (≈ 53.7 µM) | 59 (≈ 127 µM) | – | 65 | – | –
Cc1c(S(=O)(=O)N/C(=N\O)Nc2ccc(Cl)cc2)sc2ccc(Cl)cc12 | 60 (≈ 139 µM) | 140 (≈ 325 µM) | 29 (≈ 67.4 µM) | 44 (≈ 102 µM) | 38 (≈ 88.3 µM) | – | – | –
O=S(=O)(N/C(=N\O)Nc1ccc(Cl)cc1)c1ccc(S(=O)(=O)c2ccccc2)s1 | 59 (≈ 125 µM) | 92 (≈ 195 µM) | 29 (≈ 61.4 µM) | 41 (≈ 86.9 µM) | – | – | – | –
O=S(=O)(N/C(=N\O)Nc1ccc(Cl)cc1)c1cc(S(=O)(=O)c2ccccc2)cs1 | 45 (≈ 95.3 µM) | 175 (≈ 371 µM) | 10 (≈ 21.2 µM) | 37 (≈ 78.4 µM) | 22 (≈ 46.6 µM) | – | – | –
Cc1ccc(S(=O)(=O)/N=C(\S)Nc2ccc(Cl)cc2)cc1 | 87 (≈ 255 µM) | 232 (≈ 681 µM) | 80 (≈ 235 µM) | 125 (≈ 367 µM) | – | 59 | – | –
Cc1ccc(S(=O)(=O)N/C(=N\O)Nc2ccc(Cl)cc2)cc1 | 58 (≈ 171 µM) | 49 (≈ 144 µM) | 46 (≈ 135 µM) | 46 (≈ 135 µM) | 6 (≈ 17.7 µM) | – | – | –
Cc1ccc(S(=O)(=O)/N=C(\S)Nc2ccc(Cl)c(Cl)c2)cc1 | 45 (≈ 120 µM) | 120 (≈ 320 µM) | 41 (≈ 109 µM) | 55 (≈ 147 µM) | – | 39 | – | –
O=S(=O)(N/C(=N\O)Nc1ccc(Cl)cc1)c1cc(C(F)(F)F)cc(C(F)(F)F)c1 | 58 (≈ 126 µM) | 233 (≈ 505 µM) | 57 (≈ 123 µM) | 66 (≈ 143 µM) | 44 (≈ 95.3 µM) | – | – | –
O=S(=O)(N/C(=N\O)Nc1ccc(Cl)cc1)c1cc2ccccc2o1 | > 200 | > 200 | 67 (≈ 183 µM) | – | – | – | – | –
Cc1ccc(S(=O)(=O)NC(=O)Nc2ccc(Cl)cc2)cc1 [LY-181984] | 83 (≈ 256 µM) | > 300 | 72 (≈ 222 µM) | 106 (≈ 326 µM) | – | 33 | 64.7 | -1.2
O=S(=O)(N/C(=N\O)Nc1ccc(Cl)cc1)c1ccc(-c2cccs2)cn1 | 74 (≈ 181 µM) | 121 (≈ 296 µM) | 61 (≈ 149 µM) | 208 (≈ 509 µM) | 75 (≈ 183 µM) | – | – | –
Cc1c(S(=O)(=O)N/C(=N\O)Nc2ccc(Cl)c(Cl)c2)sc2ccc(Cl)cc12 | > 300 | > 300 | > 300 | > 300 | > 300 | – | – | –
O=S(=O)(NC(=S)Nc1ccc(Cl)cc1)c1cccc2snnc12 | 50 (≈ 130 µM) | 124 (≈ 322 µM) | 63 (≈ 164 µM) | 42 (≈ 109 µM) | – | 55 | – | –
O=[N+]([O-])c1ccc(Oc2c(Cl)cc(S(=O)(=O)N/C(=N\O)Nc3ccc(Cl)cc3)cc2Cl)cc1 | 12 (≈ 22.6 µM) | 22 (≈ 41.4 µM) | 12 (≈ 22.6 µM) | 7 (≈ 13.2 µM) | 55 (≈ 103 µM) | – | – | –
Cc1c(S(=O)(=O)/N=C(\S)Nc2ccc(Cl)cc2)sc2ccc(Cl)cc12 | 52 (≈ 121 µM) | 57 (≈ 132 µM) | 61 (≈ 141 µM) | 55 (≈ 127 µM) | – | 12 | – | –
N#Cc1c(Cl)cccc1Oc1ccc(S(=O)(=O)N/C(=N\O)Nc2ccc(Cl)cc2)cc1 | 178 (≈ 373 µM) | > 300 | 39 (≈ 81.7 µM) | 168 (≈ 352 µM) | 95 (≈ 199 µM) | – | – | –
Cc1ccc(S(=O)(=O)N/C(=N\O)Nc2ccc(Cl)c(Cl)c2)cc1 | 10 (≈ 26.7 µM) | 72 (≈ 192 µM) | 8 (≈ 21.4 µM) | 67 (≈ 179 µM) | 7 (≈ 18.7 µM) | – | – | –
